Publication PMC12837263, “β,β-Dimethylacrylalkannin Restores Colistin Efficacy Against mcr- and TCS-Mediated Resistant Gram-Negative Bacteria via Membrane Disturbance” (Antibiotics, 2025)

Tests used:
[1] = tested on: E. coli (including mcr-1, mcr-3, and pmrA/B); assay: Checkerboard assay, colistin-resistant E. coli (summary); assay type: cell-based; settings: with β,β-Dim
Protocol: (§1) The FICI of β,β-Dim–colistin combination was determined by a checkerboard assay. Briefly, two-fold serial dilutions of β,β-Dim and colistin were prepared in a 96-well plate. After incubation at 37 °C for 18 h with bacterial suspension (10^6 CFU/mL), OD600 values were measured. FICI = (MICβ,β-Dim in combination/MICβ,β-Dim) + (MICcolistin in combination/MICcolistin). The synergistic effect of β,β-Dim with other antibiotics was measured in the same way. Synergy was considered to be an FICI ≤ 0.5.

six susceptible strains = assay: Checkerboard assay, six susceptible strains (summary); assay type: cell-based; settings: with β,β-Dim
Protocol: as §1

[2] = tested on: K. pneumoniae (including mcr-1, mcr-8, mcr-9, pmrA/B, phoP, and mgrB); assay: Checkerboard assay, colistin-resistant K. pneumoniae (summary); assay type: cell-based; settings: with β,β-Dim
Protocol: as §1

[3] = tested on: E. coli BW25113, E. coli BW25113-mcr-1, and E. coli BW25113-pmrBR93P; assay: Intracellular β,β-Dim content (HPLC-MS/MS); assay type: cell-based; settings: β,β-Dim 16 μg/mL with colistin 0–1 × MIC; three E. coli strains
Protocol: Overnight cultures E. coli BW25113, E. coli BW25113-mcr-1, and E. coli 1 BW25113-pmrBR93P were diluted to 10^8 CFU/mL and then co-incubated with colistin (0.5 × MIC) in the presence of β,β-Dim (0–4 μg/mL) for 30 min at 37 °C. The cultures were centrifuged and resuspended in 30% methanol. Bacteria were disrupted by sonication and centrifugation, supernatants were diluted in 20% acetonitrile, and intracellular colistin was quantified via HPLC-MS/MS (TQ-XS, Waters, Milford, MA, USA). Analyses were performed on a CORTECS Shield RP C18 column (Waters, Milford, MA, USA) at 40 °C, with a flow rate of 0.4 mL/min and an injection volume of 5 μL. The mobile phases consisted of solvent A (0.5% formic acid and acetonitrile in water) and solvent B (0.5% formic acid in water). Colistin was detected in positive ESI mode with ion transitions […] and m/z 386.0 > 101.0. […] Mobile phases included solvent A (acetonitrile) and solvent B (water). β,β-Dim was detected in the negative electrospray ionization (ESI) mode with ion transitions m/z 369.1 > 269.0 and m/z 369.1 > 241.0.

Cytotoxicity (CCK-8) = assay type: cell-based; settings: human, HK-2 cells and HepG2 cells; HK-2 and HepG2, 24 h; selection criterion
Protocol: Toxicity assessment was performed by using sheep blood cells, human renal proximal tubular epithelial HK-2, and human hepatocarcinoma HepG2. Briefly, 8% erythrocyte suspensions were incubated with the test compounds (0–250 µM) for 1 h at 37 °C. After centrifugation, supernatants were transferred to a 96-well plate, and absorbance was measured at 570 nm.
The HepG2 and HK-2 cells (10^4 cells/well) were cultured in DMEM medium containing 10% fetal bovine serum (FBS) and then placed in a 5% CO2 incubator for 24 h. The culture medium was replaced with fresh DMEM medium containing the compounds (0–250 µM), followed by a further 24 h incubation. Subsequently, 10 µL of CCK-8 was added and incubated for 1 h, and OD450nm values were measured.Hemolysis% = [OD570nm(drug) − OD570nm(blank)]/[OD570nm(TritonX−100) − OD570nm(blank)] × 100%Cell viability% = [OD450nm(drug) − OD450nm(blank)]/[OD450nm(negative) − OD450nm(blank)] × 100%

[4] = cited from earlier work
[5] = rats; cited from earlier work

Molecule | improvement of colistin efficacy (MIC reduction) [1] | reduction of colistin MIC (six susceptible strains) | enhancement of colistin activity (MIC reduction) [2] | intracellular β,β-Dim accumulation [3] | IC50 at 24 h (Cytotoxicity (CCK-8)) [µM] | lipophilicity [4] | maximum tolerable dose [5] | no-observed-adverse-effect level (NOAEL) [5] [mg/kg]
colistin | 4–32 fold | 4–64 fold | 8–1024 fold |  |  |  |  | 
CC(C)=CC[C@H](OC(=O)C=C(C)C)C1=CC(=O)c2c(O)ccc(O)c2C1=O [β,β-Dim, β,β-dimethylacrylalkannin] |  |  |  | approximately 60 ng per 10^8 CFUs | > 10 | high lipophilicity | exceeds 10 g/kg | 10
